Data set [1] can be described thus: Pharmacokinetic assay in Balb/c mice (plasma and brain tissue). It is filed as in vivo. Particulars: mouse, po, 5 mg/kg p.o., male Balb/c mice; for AUC(0-t): read-out: Area under curve AUC0-t; for AUC(0-inf): read-out: Area under curve AUC0-∞; for half-life: read-out: Half-life t1/2 (converted); for MRT: read-out: Mean residence time MRT; for Tmax: read-out: Peak time tmax; for Cmax: read-out: Plasma concentration Cmax. The procedure, abridged: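 Compound levels in plasma and brain were measured by LC/MS/MS with an internal standard after protein precipitation with acetonitrile. Samples came from overnight-fasted male Balb/c mice given 5 mg/kg p.o., with cardiac blood drawn at 0–24 h. Pharmacokinetic parameters were then calculated.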

The next data set concerns the target GABA-A receptor. The data set is described as follows: 35S-TBPS binding assay (GABAA receptor binding ability test). Also on record: species or system Sprague-Dawley rat. The conditions noted are these: rat cerebral cortex cell membrane, 5 μM GABA, 2 nM 35S-TBPS; read-out: 35S-TBPS bindng test: IC50 on inhibiting the TBPS binding activity. The procedure, abridged: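 Rat (male Sprague-Dawley) cortical membranes in PBS were preincubated 5 min at 25° C with compound (from 1 μM, 3-fold, 8 points, 1% DMSO), then 5 μM GABA 5 min, then 2 nM ^35S-TBPS for 20 h at 4° C. Filter-bound counts gave % inhibition against DMSO and 10 μM P026-2 controls; IC50 by 4-parameter fit.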

pIC50: −log10 of the molar value. Where two headings read alike, the source gives them in different places.

Consider nine compounds from patent US12139508B2, “Steroid derivative regulators, method for preparing the same, and uses thereof” (JIANGSU HANSOH PHARMACEUTICAL GROUP CO., LTD., priority 2018, dated 2024).

By MRT is commonly meant a mean duration of stay, worked out from the concentration-time curve. As a reminder, the Tmax is the time from dosing to the highest level. The pIC50 is the negative decadic logarithm of the IC50, by convention in mol/L.

For `C[C@@H]1C[C@H](C(=O)Cn2cc(C#N)cn2)[C@@]2(C)CC[C@H]3[C@@H](CC[C@@H]4C[C@](C)(O)CC[C@@H]43)[C@H]12` [Example 13, 1-(2-((3R,5R,8R,9R,10S,13S,14S,15R)-3-Hydroxy-3,13,15-trimethylhexadecahydro-1H-cyclopenta[a]phenanthren-17-yl)-2-oxoethyl)-1H-pyrazole-4-carbonitrile], in data set [1] (brain tissue), the AUC(0-t) was found to be 4730 ng·h/mL, the AUC(0-inf) stood at 4740 ng·h/mL, the half-life is 2.5 h and the MRT was found to be 3.9 h. Further, in data set [1] (brain tissue), the Tmax was found to be 1 h and the Cmax turned out to be 1060 ng/mL. In data set [1] (plasma), the AUC(0-t) was 5060 ng·h/mL, the AUC(0-inf) was found to be 5070 ng·h/mL, the half-life was 2.5 h and the MRT was 3.6 h. Besides, in data set [1] (plasma), the Tmax amounted to 1 h and the Cmax was determined as 1210 ng/mL. The pIC50 on GABA-A receptor was 8.34.

For `CC[C@@H]1C[C@H](C(=O)Cn2ccc(C#N)n2)[C@@]2(C)CC[C@H]3[C@@H](CC[C@@H]4C[C@](C)(O)CC[C@@H]43)[C@H]12` [Example 137, 1-(2-((3R,5R,8R,9R,10S,13S,14S,15R,17S)-15-Ethyl-3-hydroxy-3,13-dimethylhexadecahydro-1H-cyclopenta[a]phenanthren-17-yl)-2-oxoethyl)-1H-pyrazole-3-carbonitrile], in data set [1] (brain tissue), the AUC(0-t) came out at 2130 ng·h/mL, the AUC(0-inf) is 3160 ng·h/mL, the half-life is 6.02 h and the MRT stood at 7.58 h. Besides, in data set [1] (brain tissue), the Tmax stood at 1 h and the Cmax was 613 ng/mL. Moreover, in data set [1] (plasma), the AUC(0-t) amounted to 2780 ng·h/mL, the AUC(0-inf) was determined as 3790 ng·h/mL, the half-life was 3.85 h and the MRT amounted to 5.88 h. In data set [1] (plasma), the Tmax came to 1 h and the Cmax is 763 ng/mL. In addition, the pIC50 on GABA-A receptor was 7.79.

For `C[C@@H]1C[C@H](C(=O)Cn2ccc(C#N)n2)[C@@]2(C)CC[C@H]3[C@@H](CC[C@@H]4C[C@](C)(O)CC[C@@H]43)[C@H]12` [Example 60, 1-(2-((3R,5R,8R,9R,10S,13S,14S,15R,17S)-3-Hydroxy-3,13,15-trimethylhexadecahydro-1H-cyclopenta[a]phenanthren-17-yl)-2-oxoethyl)-1H-pyrazole-3-carbonitrile], in data set [1] (brain tissue), the AUC(0-t) stood at 2400 ng·h/mL, the AUC(0-inf) was 2500 ng·h/mL, the half-life was 2.37 h and the MRT is 2.35 h. Also, in data set [1] (brain tissue), the Tmax turned out to be 1 h and the Cmax turned out to be 998 ng/mL. Moreover, in data set [1] (plasma), the AUC(0-t) was found to be 1700 ng·h/mL, the AUC(0-inf) came to 1770 ng·h/mL, the half-life was 1.64 h and the MRT is 1.43 h. In addition, in data set [1] (plasma), the Tmax was 0.5 h and the Cmax was 720 ng/mL. Also, the pIC50 on GABA-A receptor is 8.09.

For the compound `C[C@@]1(O)CC[C@H]2[C@H](CC[C@@H]3[C@@H]2CC[C@@]2(C)[C@H]3[C@@H]3C[C@@H]3[C@@H]2C(=O)Cn2ccc(C#N)n2)C1` [Example 3, 1-(2-((2R,4aS,4bR,6aS,7S,7aS,8aR,8bR,8cR,10aR)-2-hydroxy-2,6a-dimethyloctadecahydrocyclopropa[4,5]cyclopenta[1,2-a]phenanthren-7-yl)-2-oxoethyl)-1H-pyrazole-3-carbonitrile], in data set [1] (brain tissue), the AUC(0-t) came to 719 ng·h/mL, the AUC(0-inf) came out at 722 ng·h/mL, the half-life is 0.5 h and the MRT is 1.1 h. Further, in data set [1] (brain tissue), the Tmax was 0.5 h and the Cmax came out at 690 ng/mL. Further, in data set [1] (plasma), the AUC(0-t) was 570 ng·h/mL, the AUC(0-inf) was found to be 574 ng·h/mL, the half-life is 0.5 h and the MRT was determined as 1.01 h. In addition, in data set [1] (plasma), the Tmax came out at 0.5 h and the Cmax came out at 673 ng/mL. Further, the pIC50 at GABA-A receptor is 7.83.

Take `C[C@@]1(O)CC[C@H]2[C@H](CC[C@@H]3[C@@H]2CC[C@]2(C)C(C(=O)Cn4cc(C#N)cn4)C[C@@H](C4CC4)[C@@H]32)C1` (stereo partly drawn) [Example 71, 1-(2-((3R,5R,8R,9R,10S,13S,14S,15S)-15-Cyclopropyl-3-hydroxy-3,13-dimethylhexadecahydro-1H-cyclopenta[a]phenanthren-17-yl)-2-oxoethyl)-1H-pyrazole-4-carbonitrile]: in data set [1] (brain tissue), the AUC(0-t) turned out to be 1130 ng·h/mL, the AUC(0-inf) turned out to be 1280 ng·h/mL, the half-life is 2 h and the MRT turned out to be 3.66 h. In data set [1] (brain tissue), the Tmax was 1 h and the Cmax came out at 383 ng/mL. In addition, in data set [1] (plasma), the AUC(0-t) worked out at 1580 ng·h/mL, the AUC(0-inf) stood at 1760 ng·h/mL, the half-life was 2.04 h and the MRT worked out at 3.5 h. Also, in data set [1] (plasma), the Tmax is 1 h and the Cmax came out at 508 ng/mL. Moreover, at GABA-A receptor, the pIC50 is 8.12.

Turning to `C[C@@]1(O)CC[C@H]2[C@H](CC[C@@H]3[C@@H]2CC[C@@]2(C)[C@H]3[C@@H]3C[C@@H]3[C@@H]2C(=O)Cn2cc(C#N)cn2)C1` [Example 2, 1-(2-((2R,4aS,4bR,6aS,7S,7aS,8aR,8bR,8cR,10aR)-2-hydroxy-2,6a-dimethyloctadecahydrocyclopropa[4,5]cyclopenta[1,2-a]phenanthren-7-yl)-2-oxoethyl)-1H-pyrazole-4-carbonitrile], in data set [1] (brain tissue), the AUC(0-t) turned out to be 840 ng·h/mL, the AUC(0-inf) was 913 ng·h/mL, the half-life is 2.84 h and the MRT stood at 2.39 h. In data set [1] (brain tissue), the Tmax was 0.5 h and the Cmax was found to be 637 ng/mL. Besides, in data set [1] (plasma), the AUC(0-t) was found to be 1360 ng·h/mL, the AUC(0-inf) was 1370 ng·h/mL, the half-life is 0.54 h and the MRT amounted to 1.21 h. Moreover, in data set [1] (plasma), the Tmax turned out to be 0.5 h and the Cmax turned out to be 1100 ng/mL. On GABA-A receptor, the pIC50 is 7.61.

`C[C@@]1(O)CC[C@H]2[C@H](CC[C@@H]3[C@@H]2CC[C@@]2(C)[C@H]3[C@H](C3CC3)C[C@@H]2C(=O)Cn2ccnn2)C1` [Example 145, 1-((3R,5R,8R,9R,10S,13S,14S,15S,17S)-15-Cyclopropyl-3-hydroxy-3,13-dimethylhexadecahydro-1H-cyclopenta[a]phenanthren-17-yl)-2-(1H-1,2,3-triazol-1-yl)ethan-1-one]: in data set [1] (brain tissue), the AUC(0-t) came out at 4820 ng·h/mL, the AUC(0-inf) was found to be 5270 ng·h/mL, the half-life is 2.09 h and the MRT amounted to 3.4 h. Further, in data set [1] (brain tissue), the Tmax came to 1 h and the Cmax turned out to be 1480 ng/mL. Further, in data set [1] (plasma), the AUC(0-t) came to 13400 ng·h/mL, the AUC(0-inf) came out at 13400 ng·h/mL, the half-life is 1.75 h and the MRT was 3.47 h. Moreover, in data set [1] (plasma), the Tmax is 1 h and the Cmax was found to be 2990 ng/mL. Also, the pIC50 on GABA-A receptor is 7.77.

For the compound `C[C@@]1(O)CC[C@H]2[C@H](CC[C@@H]3[C@@H]2CC[C@@]2(C)[C@H]3[C@H](C3CC3)C[C@@H]2C(=O)Cn2ncnn2)C1` [Example 146, 1-((3R,5R,8R,9R,10S,13S,14S,15S,17S)-15-Cyclopropyl-3-hydroxy-3,13-dimethylhexadecahydro-1H-cyclopenta[a]phenanthren-17-yl)-2-(2H-tetrazol-2-yl)ethan-1-one], in data set [1] (brain tissue), the AUC(0-t) amounted to 8680 ng·h/mL, the AUC(0-inf) was determined as 12500 ng·h/mL, the half-life is 4.66 h and the MRT was found to be 6.73 h. Besides, in data set [1] (brain tissue), the Tmax stood at 1 h and the Cmax turned out to be 1970 ng/mL. Further, in data set [1] (plasma), the AUC(0-t) worked out at 7790 ng·h/mL, the AUC(0-inf) was found to be 8000 ng·h/mL, the half-life was 1.45 h and the MRT was 2.97 h. In data set [1] (plasma), the Tmax is 1 h and the Cmax came out at 2090 ng/mL. Also, at GABA-A receptor, the pIC50 is 7.67.

With `C[C@@]1(O)CC[C@H]2[C@H](CC[C@@H]3[C@@H]2CC[C@@]2(C)[C@H]3[C@@H]3C[C@@H]3[C@@H]2C(=O)Cn2cc(C(F)(F)F)cn2)C1` [Example 5, 1-((2R,4aS,4bR,6aS,7S,7aS,8aR,8bR,8cR,10aR)-2-Hydroxy-2,6a-dimethyloctadecahydrocyclopropa[4,5]cyclopenta[1,2-a]phenanthren-7-yl)-2-(4-(trifluoromethyl)-1H-pyrazol-1-yl)ethan-1-one], in data set [1] (brain tissue), the AUC(0-t) amounted to 2300 ng·h/mL, the AUC(0-inf) amounted to 3070 ng·h/mL, the half-life is 4.72 h and the mean residence time (MRT) was 5.53 h. Moreover, in data set [1] (brain tissue), the Tmax turned out to be 0.5 h and the Cmax turned out to be 1410 ng/mL. Besides, in data set [1] (plasma), the AUC(0-t) was 1240 ng·h/mL, the AUC(0-inf) is 1250 ng·h/mL, the half-life is 5.12 h and the MRT worked out at 4.8 h. Moreover, in data set [1] (plasma), the time of peak concentration (Tmax) worked out at 0.5 h and the Cmax came to 461 ng/mL. Further, the pIC50 at GABA-A receptor is 7.87.
